Test results taken from patent US20160151337A1, “ANNELATED PYRROLES AND THEIR USE AS CRAC INHIBITORS” (Grünenthal GmbH, priority 2013, published 2016).

Target: T1, CRAC channel (Homo sapiens, UniProt Q96D31)
T1 construct: endogenous in cells; host or cells: HEK293 (ECACC), untransfected
Test: HEK Calcium Influx Assay (FLIPR), inhibition of store-operated Ca2+ entry after thapsigargin store depletion
Type: cell-based
Settings: 10 μM compound, HEK293 cells, read-out: % inhib. [@ 10 μM] FLIPR
Procedure: The effect of compounds of the invention on intracellular [Ca^2+] was tested in the HEK293 cell line (ECACC).
HEK293 cells were cultured in DMEM/F12/Glutamax (Gibco) containing 10% FCS (Gibco), and maintained at 37° C., 5% CO2. Cell were split twice a week [3*10^6 (Mon-Thu) and 1*10^6 (Thu-Mon) cells/50 ml medium in 1-175 ZK culture flasks, respectively]. Twenty four hours pre-experiment, cells were seeded on 96 well plates (Poly-D-Lysine 96 well Black/Clear Plate, BD Biocoat REF 356640) at a density of 40,000 cells/well in DMEM/F12 (Gibco) containing 10% FCS (Gibco), and maintained at 37° C., 5% CO2.
Prior to store-depletion, cell culture medium was removed and cells were loaded with the Calcium-sensitive fluorescent dye comprised within the Calcium-4-assay kit (Molecular Devices) in nominally Ca^2+-free HBS buffer (140 mM NaCl, 4 mM KCl, 0.2 mM MgCl2, 11 mM D-glucose, and 10 mM HEPES, pH 7.4) according to manufacturer's instruction for 60 min at 37° C., 5% CO2.
Passive depletion of intracellular Ca^2+-stores was then triggered by employing the SERCA inhibitor thapsigargin (2 μM final) for 10 min in the dark (RT). To prevent immediate Ca^2+-entry via the activated store-operated channels (SOCs), cells were maintained in Ca^2+-free HBS buffer comprising 100 μM EGTA during store-depletion.
Intracellular changes in [Ca^2+] were subsequently monitored with the FLIPR device (Molecular Devices). In brief, baseline imaging post-store depletion was allowed for 1 min before adjusting the extracellular buffer to 3 mM CaCl2. Increases in intracellular [Ca^2+] due to pre-activated SOC channels were monitored for 15 min until intracellular Ca^2+ levels had declined into a steady-state. Finally, compounds were administered, and Ca^2+ signals were recorded for additional 10 min.
Inhibition of endogenous SOC in HEK293 cells was quantified employing the average Ca^2+ signal measured from 9.5-10 min post-administration. Zero percent inhibition (MAX) was defined as the Ca^2+ signal recorded from wells to which DMSO-only had been added instead of compound. Hundred percent inhibition (MIN) was defined as the signal obtained from wells in which cells haven't been treated with TG prior to Ca^2+ addition and to which DMSO-only had been added instead of compound. For routine IC50 determinations of compounds, 8 concentrations of a serial dilution (1:3.16) were tested, starting off from 10 μM. Reliable IC50's could consequently be determined only, if they were at least sub 2.5-3 μM.

T1 sequence (Q96D31 whole entry): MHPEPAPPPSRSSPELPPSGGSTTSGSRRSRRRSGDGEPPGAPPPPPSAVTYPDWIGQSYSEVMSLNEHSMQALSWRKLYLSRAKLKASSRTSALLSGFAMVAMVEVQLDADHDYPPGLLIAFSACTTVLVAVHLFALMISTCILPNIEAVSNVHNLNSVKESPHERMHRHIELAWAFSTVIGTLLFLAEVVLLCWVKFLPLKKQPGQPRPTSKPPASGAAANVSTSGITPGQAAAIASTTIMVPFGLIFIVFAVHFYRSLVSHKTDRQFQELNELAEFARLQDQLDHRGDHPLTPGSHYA

inhibition at 10 µM [%]	SMILES
> 70	O=C1c2cc(-c3c(F)cccc3Cl)[nH]c2CCN1c1c(F)cccc1F [Example 49, 2-(2-Chloro-6-fluoro-phenyl)-5-(2,6-difluoro-phenyl)-1,5,6,7-tetrahydro-pyrrolo[3,2-c]pyridin-4-one]
> 70	CNC(=O)c1ccc(N2CCc3[nH]c(-c4c(F)cccc4F)cc3C2)c(C)c1 [Example 80, 4-[2-(2,6-Difluoro-phenyl)-4,5,6,7-tetrahydro-1H-pyrrolo[3,2-c]pyridin-5-yl]-N,3-dimethyl-benzamide]
> 70	Cc1sc(-c2cccnc2)nc1N1CCc2[nH]c(-c3c(F)cccc3F)c(CO)c2C1 [Example 85, [2-(2,6-Difluoro-phenyl)-5-(5-methyl-2-pyridin-3-yl-thiazol-4-yl)-4,5,6,7-tetrahydro-1H-pyrrolo[3,2-c]pyridin-3-yl]-methanol]
50 to 70	Cc1sc(-c2ccccn2)nc1N1CCc2[nH]c(-c3c(F)cccc3F)cc2C1=O [Example 5, 2-(2,6-Difluoro-phenyl)-5-(5-methyl-2-pyridin-2-yl-thiazol-4-yl)-1,5,6,7-tetrahydro-pyrrolo[3,2-c]pyridin-4-one]
> 70	Cc1cc(N)ncc1N1CCc2[nH]c(-c3c(F)cccc3F)cc2C1 [Example 95, [5-[2-(2,6-Difluoro-phenyl)-4,5,6,7-tetrahydro-1H-pyrrolo[3,2-c]pyridin-5-yl]-4-methyl-pyridin-2-yl]-amine]
> 70	Cc1sc(-c2ncco2)nc1N1CCc2[nH]c(-c3c(F)cccc3Cl)cc2C1=O [Example 53, 2-(2-Chloro-6-fluoro-phenyl)-5-(5-methyl-2-oxazol-2-yl-thiazol-4-yl)-1,5,6,7-tetrahydro-pyrrolo[3,2-c]pyridin-4-one]
> 70	Cc1sc(-c2ncco2)nc1N1CCc2[nH]c(-c3c(F)cccc3Cl)cc2C1 [Example 62, 2-[4-[2-(2-Chloro-6-fluoro-phenyl)-4,5,6,7-tetrahydro-1H-pyrrolo[3,2-c]pyridin-5-yl]-5-methyl-thiazol-2-yl]-oxazole]
> 70	Cc1sc(-c2ncco2)nc1N1CCc2[nH]c(-c3c(F)cccc3F)cc2C1=O [Example 54, 2-(2,6-Difluoro-phenyl)-5-(5-methyl-2-oxazol-2-yl-thiazol-4-yl)-1,5,6,7-tetrahydro-pyrrolo[3,2-c]pyridin-4-one]
50 to 70	Cc1cc(Cl)ncc1N1CCc2[nH]c(-c3ccc(F)cc3F)cc2C1=O [Example 44, 5-(6-Chloro-4-methyl-pyridin-3-yl)-2-(2,4-difluoro-phenyl)-1,5,6,7-tetrahydro-pyrrolo[3,2-c]pyridin-4-one]
> 70	Cc1cc(Cl)ncc1N1CCc2[nH]c(-c3c(F)cccc3Cl)cc2C1=O [Example 45, 2-(2-Chloro-6-fluoro-phenyl)-5-(6-chloro-4-methyl-pyridin-3-yl)-1,5,6,7-tetrahydro-pyrrolo[3,2-c]pyridin-4-one]
50 to 70	Cc1ccc(Cl)cc1N1CCc2[nH]c(-c3c(F)cccc3Cl)cc2C1=O [Example 50, 2-(2-Chloro-6-fluoro-phenyl)-5-(5-chloro-2-methyl-phenyl)-1,5,6,7-tetrahydro-pyrrolo[3,2-c]pyridin-4-one]
> 70	CCn1nc(N2CCc3[nH]c(-c4c(F)cccc4F)cc3C2)cc1C1(C(F)(F)F)CC1 [Example 125, 2-(2,6-Difluoro-phenyl)-5-[1-ethyl-5-[1-(trifluoromethyl)-cyclopropyl]-1H-pyrazol-3-yl]-4,5,6,7-tetrahydro-1H-pyrrolo[3,2-c]pyridine]
> 70	Cc1c(F)cncc1N1CCc2[nH]c(-c3c(F)cccc3F)cc2C1 [Example 94, 2-(2,6-Difluoro-phenyl)-5-(5-fluoro-4-methyl-pyridin-3-yl)-4,5,6,7-tetrahydro-1H-pyrrolo[3,2-c]pyridine]
> 70	Cc1cc(N2CCc3[nH]c(-c4c(F)cccc4F)cc3C2)n(C)n1 [Example 58, 2-(2,6-Difluoro-phenyl)-5-(2,5-dimethyl-2H-pyrazol-3-yl)-4,5,6,7-tetrahydro-1H-pyrrolo[3,2-c]pyridine]
> 70	Cc1sc(C2CC2)nc1N1CCc2[nH]c(-c3c(F)cccc3Cl)cc2C1=O [Example 52, 2-(2-Chloro-6-fluoro-phenyl)-5-(2-cyclopropyl-5-methyl-thiazol-4-yl)-1,5,6,7-tetrahydro-pyrrolo[3,2-c]pyridin-4-one]
> 70	Cc1sc(-c2ncco2)nc1N1CCc2[nH]c(-c3c(F)cccc3F)cc2C1 [Example 57, 2-[4-[2-(2,6-Difluoro-phenyl)-4,5,6,7-tetrahydro-1H-pyrrolo[3,2-c]pyridin-5-yl]-5-methyl-thiazol-2-yl]-oxazole]
> 70	Cc1cc(C(=O)N(C)C)ccc1N1CCc2[nH]c(-c3c(F)cccc3F)cc2C1 [Example 81, 4-[2-(2,6-Difluoro-phenyl)-4,5,6,7-tetrahydro-1H-pyrrolo[3,2-c]pyridin-5-yl]-N,N,3-trimethyl-benzamide]
50 to 70	O=C1c2cc(-c3c(F)cccc3F)[nH]c2CCN1c1c(F)cccc1F [Example 46, 2,5-Bis(2,6-difluoro-phenyl)-1,5,6,7-tetrahydro-pyrrolo[3,2-c]pyridin-4-one]
> 70	COc1ncccc1-c1cc2c([nH]1)CCN(c1cnc(S(C)(=O)=O)cc1C)C2 [Example 98, 2-(2-Methoxy-pyridin-3-yl)-5-(4-methyl-6-methylsulfonyl-pyridin-3-yl)-4,5,6,7-tetrahydro-1H-pyrrolo[3,2-c]pyridine]
> 70	Cc1sccc1N1CCc2[nH]c(-c3c(F)cccc3Cl)cc2C1 [Example 60, 2-(2-Chloro-6-fluoro-phenyl)-5-(2-methyl-thiophen-3-yl)-4,5,6,7-tetrahydro-1H-pyrrolo[3,2-c]pyridine]
> 70	Cc1sc(-c2cccnc2)nc1N1CCc2[nH]c(-c3c(F)cccc3Cl)cc2C1=O [Example 42, 2-(2-Chloro-6-fluoro-phenyl)-5-(5-methyl-2-pyridin-3-yl-thiazol-4-yl)-1,5,6,7-tetrahydro-pyrrolo[3,2-c]pyridin-4-one]
> 70	Cc1sccc1N1CCc2[nH]c(-c3c(F)cccc3F)cc2C1=O [Example 47, 2-(2,6-Difluoro-phenyl)-5-(2-methyl-thiophen-3-yl)-1,5,6,7-tetrahydro-pyrrolo[3,2-c]pyridin-4-one]
> 70	Cc1sc(C2CC2)nc1N1CCc2[nH]c(-c3c(F)cccc3Cl)cc2C1 [Example 61, 4-[2-(2-Chloro-6-fluoro-phenyl)-4,5,6,7-tetrahydro-1H-pyrrolo[3,2-c]pyridin-5-yl]-2-cyclopropyl-5-methyl-thiazole]
50 to 70	Cc1ccc(C#N)cc1N1CCc2[nH]c(-c3c(F)cccc3F)cc2C1 [Example 29, 3-[2-(2,6-Difluoro-phenyl)-4,5,6,7-tetrahydro-1H-pyrrolo[3,2-c]pyridin-5-yl]-4-methyl-benzonitrile]
> 70	Cc1sccc1N1CCc2[nH]c(-c3c(F)cccc3Cl)cc2C1=O [Example 51, 2-(2-Chloro-6-fluoro-phenyl)-5-(2-methyl-thiophen-3-yl)-1,5,6,7-tetrahydro-pyrrolo[3,2-c]pyridin-4-one]
